Laboratory results published in patent publication US10239835B2, “N-alkylaryl-5-oxyaryl-octahydro-cyclopenta[c]pyrrole negative allosteric modulators of NR2B” (Luc Therapeutics, Inc., priority 2014, dated 2019).

Legend:
[1] = molecular target: HEK293 cells expressing NR1/NR2B (Homo sapiens (Human), UniProt Q13224); assay: NR2B NAM Assay (FDSS Ca2+ influx cell assay); type: cell-based; details: Ca2+ influx inhibition relative to MK801; 3 μM glutamate, 3 μM glycine, 1 mM Ca2+; read-out: NR2B NAM IC50
Method: (§1) Cell Culture and plating: HEK293 cells expressing NR1/NR2B (Chantest, Cleveland, Ohio) were grown to 70-80% confluency as an adherent monolayer in standard tissue culture flasks at 37° C., 5% CO2 per supplier's instructions. NR2B expression was induced by incubation with 0.3-0.4 μg/ml tetracycline in the presence of 4 mM ARL-15896 for 18-24 hours under the same growth conditions, then transferred to 30° C. for another 3-5 hours.
(§2) After induction, cell culture medium was removed and cells were rinsed once with Ca^2+ and Mg^2+-free Dulbecco's phosphate buffered saline. Cells were then removed from the flask using TrypLE™ Express (Life Technologies) according to the manufacturer's instructions and collected to 50 ml centrifuge tubes. Following two washes in Ca^2+/Mg^2+-free HBSS with 20 mM HEPES (HHnoCa), cells were counted and viability assessed using trypan blue. To load cells with Ca^2+-sensitive dye, they were resuspended in fluo-8 plus Component B (AAT Bioquest Products) diluted in HHnoCa and incubated 15 minutes at 37° C., followed by 30 minutes at room temp (in dark). Cells were then washed and resuspended in HHnoCa to remove extracellular dye and plated in 384-well plates (Falcon, uncoated) at 20,000-30,000 cells/well in a final volume of 25 μl/well.
(§3) FDSS Assay: To each well of the plate, 10 μL test compound, control (MK801) or HHnoCa buffer was added at different concentrations to yield final concentrations of 0.001, 0.003, 0.010, 0.030, 0.100, 0.300, 1.000, 3.000, 10.000, or 30.000 uM final concentration of DMSO of 0.1%. Following 10 minutes pre-incubation in the dark, plates are loaded onto the Hamamatsu FDSS 6000. After collecting baseline fluorescence images, 3 μM glutamate, 3 μM glycine, and 1 mM Ca^2+ in HHnoCa buffer is added to each well, and Ca^2+ is recorded for 3 minutes. Data were processed by computing ratio of fluorescence at the end of data collection to baseline fluorescence to assess degree of Ca^2+ influx inhibition relative to that observed in MK801.
(§4) Table 8 below provides activity of each compound according to the legend that “++++” indicates inhibition at a concentration<100 nM; “+++” indicates inhibition at a concentration between 100 nM and 1 μM of the disclosed compound; “++” indicates inhibition at a concentration of from 1 μM to 10 μM; and “+” indicates inhibition at a concentration>10 μM.

[2] = molecular target: HEK293 cells expressing NR1/NR2B (Homo sapiens (Human), UniProt Q05586+Q13224); assay: NR2B NAM Assay (FDSS Ca2+ influx cell assay); type: cell-based; details: NR2B NAM assay, class of inhibitory concentration; read-out: Activity Category
Method: as §1, §2, §3, §4

Sequence of HEK293 cells expressing NR1/NR2B (Homo sapiens (Human), UniProt Q13224) (Q13224 27-1484, other chains not shown): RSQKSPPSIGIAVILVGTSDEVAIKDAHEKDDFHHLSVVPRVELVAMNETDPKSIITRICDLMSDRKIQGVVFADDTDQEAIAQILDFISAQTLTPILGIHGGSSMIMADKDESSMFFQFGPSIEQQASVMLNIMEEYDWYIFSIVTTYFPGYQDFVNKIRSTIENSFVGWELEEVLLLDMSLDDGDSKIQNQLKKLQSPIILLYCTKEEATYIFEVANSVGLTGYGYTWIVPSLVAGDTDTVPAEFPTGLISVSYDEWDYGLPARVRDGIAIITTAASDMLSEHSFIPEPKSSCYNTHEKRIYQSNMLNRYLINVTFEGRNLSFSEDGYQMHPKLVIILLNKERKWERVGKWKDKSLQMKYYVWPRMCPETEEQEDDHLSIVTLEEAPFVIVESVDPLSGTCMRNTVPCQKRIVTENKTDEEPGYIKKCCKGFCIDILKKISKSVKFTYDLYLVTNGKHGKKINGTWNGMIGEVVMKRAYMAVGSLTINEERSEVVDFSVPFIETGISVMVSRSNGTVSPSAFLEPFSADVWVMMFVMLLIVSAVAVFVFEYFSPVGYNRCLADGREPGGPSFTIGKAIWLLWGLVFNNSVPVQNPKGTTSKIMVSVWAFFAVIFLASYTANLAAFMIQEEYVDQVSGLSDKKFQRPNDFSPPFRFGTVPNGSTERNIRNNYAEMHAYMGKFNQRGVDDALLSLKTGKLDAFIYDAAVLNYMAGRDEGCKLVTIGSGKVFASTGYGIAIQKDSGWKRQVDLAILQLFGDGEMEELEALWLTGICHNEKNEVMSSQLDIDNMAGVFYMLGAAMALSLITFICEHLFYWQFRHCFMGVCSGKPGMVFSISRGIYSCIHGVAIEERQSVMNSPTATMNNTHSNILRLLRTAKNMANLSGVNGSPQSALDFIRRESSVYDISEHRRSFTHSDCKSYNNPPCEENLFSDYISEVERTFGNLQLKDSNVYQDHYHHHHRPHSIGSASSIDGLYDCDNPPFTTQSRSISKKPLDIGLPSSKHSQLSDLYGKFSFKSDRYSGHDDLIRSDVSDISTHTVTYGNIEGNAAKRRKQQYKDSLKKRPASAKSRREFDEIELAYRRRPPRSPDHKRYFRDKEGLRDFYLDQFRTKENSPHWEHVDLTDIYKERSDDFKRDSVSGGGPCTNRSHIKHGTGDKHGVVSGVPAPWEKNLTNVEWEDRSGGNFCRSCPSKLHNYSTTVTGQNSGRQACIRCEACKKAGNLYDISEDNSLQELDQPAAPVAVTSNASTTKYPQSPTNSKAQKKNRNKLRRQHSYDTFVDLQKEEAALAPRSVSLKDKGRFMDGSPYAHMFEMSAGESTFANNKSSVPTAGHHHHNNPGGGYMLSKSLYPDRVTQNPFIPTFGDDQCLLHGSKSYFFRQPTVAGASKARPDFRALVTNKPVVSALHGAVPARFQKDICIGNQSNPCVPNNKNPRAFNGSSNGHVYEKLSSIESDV
Sequence of HEK293 cells expressing NR1/NR2B (Homo sapiens (Human), UniProt Q05586+Q13224) (Q13224 27-1484, other chains not shown): as above

SMILES | IC50 [1] [µM] | IC50 [2] [µM]
Oc1ccc(C(O)CN2C[C@H]3C[C@H](Oc4ccc(F)cc4)C[C@H]3C2)cc1 (stereo partly shown) | 0.013 | < 0.1
Oc1ccc(C(O)CN2C[C@H]3C[C@H](Oc4cncc(Cl)c4)C[C@H]3C2)cc1 (stereo partly shown) | 0.493 | 0.1 to 1
OC(CN1C[C@H]2C[C@H](Oc3ccc(F)cc3)C[C@H]2C1)c1cnn(Cc2ccccc2)c1 (stereo partly shown) | 10 | > 10
O=C(CN1C[C@H]2C[C@@H](Oc3ccc(F)cc3)C[C@H]2C1)c1ccc(O)cc1 | 0.0534 | < 0.1
O=C(CN1C[C@H]2C[C@H](Oc3ccc(F)cc3)C[C@H]2C1)c1ccc(O)c(F)n1 | 10 | > 10
Cc1ccc(O[C@H]2C[C@@H]3CN(CC(=O)c4ccc(O)cc4)C[C@@H]3C2)cn1 | 0.0845 | < 0.1
N#Cc1ccc(O[C@H]2C[C@@H]3CN(CC(O)c4ccc(O)cn4)C[C@@H]3C2)cc1 (stereo partly shown) | 0.018 | < 0.1
COc1ccc(O[C@H]2C[C@@H]3CN(CC(=O)c4ccc(O)cc4)C[C@@H]3C2)cc1 | 0.0464 | < 0.1
COc1ccc(O[C@H]2C[C@@H]3CN(CC(=O)c4ccc(O)c(F)c4)C[C@@H]3C2)cc1 | 0.102 | 0.1 to 1
N#Cc1ccc(O[C@H]2C[C@@H]3CN(CC(=O)c4ccc(O)c(F)n4)C[C@@H]3C2)cc1 | 10 | > 10
N#Cc1ccc(O[C@H]2C[C@@H]3CN(CC(=O)c4ccc(O)cc4)C[C@@H]3C2)cc1 | 0.0682 | < 0.1
COc1ccc(O[C@H]2C[C@@H]3CN(CC(=O)c4ccc(O)c(OC)n4)C[C@@H]3C2)cc1 | 10 | > 10
COc1ccc(O[C@H]2C[C@@H]3CN(CC(O)c4ccc(O)cn4)C[C@@H]3C2)cc1 (stereo partly shown) | 0.0658 | < 0.1
Oc1ccc(C(O)CN2C[C@H]3C[C@H](Oc4ccc(F)cc4)C[C@H]3C2)nc1F (stereo partly shown) | 0.0302 | < 0.1
O=C(CN1C[C@H]2C[C@@H](Oc3cc(F)cc(F)c3)C[C@H]2C1)c1ccc(O)cn1 | 10 | > 10
COc1cccc(F)c1O[C@H]1C[C@@H]2CN(CC(=O)c3ccc(O)cc3)C[C@@H]2C1 | 0.466 | 0.1 to 1
O=C(CN1C[C@H]2C[C@H](Oc3ccccc3Cl)C[C@H]2C1)c1ccc(O)cn1 | 1.66 | 1 to 10
Cc1ccc(O[C@H]2C[C@@H]3CN(CC(O)c4ccc(O)cn4)C[C@@H]3C2)c(F)n1 (stereo partly shown) | 0.0602 | < 0.1
Oc1ccc(C(O)CN2C[C@H]3C[C@H](Oc4ccccc4Cl)C[C@H]3C2)nc1 (stereo partly shown) | 0.038 | < 0.1
O=C(CN1C[C@H]2C[C@H](Sc3ccccc3)C[C@H]2C1)c1ccc(O)cc1 | 0.0267 | < 0.1
Oc1ccc(C(O)CN2C[C@H]3C[C@H](Sc4ccccc4)C[C@H]3C2)cc1 (stereo partly shown) | 0.00936 | < 0.1
O=C(CN1C[C@H]2C[C@H](S(=O)(=O)c3ccccc3)C[C@H]2C1)c1ccc(O)c(F)c1 | 10 | > 10
O=S(=O)(c1ccccc1)[C@H]1C[C@@H]2CN(CC(O)c3ccc(O)c(F)c3)C[C@@H]2C1 (stereo partly shown) | 10 | > 10
O=C(CN1C[C@H]2C[C@H](Sc3ccc(F)cc3)C[C@H]2C1)c1ccc(O)cc1 | 0.074 | < 0.1
Oc1ccc([C@@H](O)CN2C[C@H]3C[C@H](Oc4cccnc4F)C[C@H]3C2)nc1 | 0.02 | < 0.1

Further molecules by falling IC50 [1], results first:

IC50 [1] [µM] | IC50 [2] [µM] | SMILES
10 | > 10 | O=C(CN1C[C@H]2C[C@H](Oc3ccc(F)cc3)C[C@H]2C1)c1cnn(Cc2ccccc2)c1
10 | > 10 | N#Cc1ccc(O[C@H]2C[C@@H]3CN(CC(=O)c4ccc(O)cn4)C[C@@H]3C2)cc1
10 | > 10 | COc1ccc(O[C@H]2C[C@@H]3CN(CC(=O)c4ccc(O)cn4)C[C@@H]3C2)cc1
10 | > 10 | COc1cccc(O[C@H]2C[C@@H]3CN(CC(=O)c4ccc(O)cn4)C[C@@H]3C2)c1
4.37 | 1 to 10 | O=S(=O)(c1ccccc1)[C@H]1C[C@@H]2CN(CC(O)c3ccc(O)cc3)C[C@@H]2C1 (stereo partly shown)
3.5 | 1 to 10 | O=C(CN1C[C@H]2CC(S(=O)(=O)c3ccccc3)C[C@H]2C1)c1ccc(O)cc1 (stereo partly shown)
1.33 | 1 to 10 | COc1ccc(O[C@H]2C[C@@H]3CN(CC(O)c4ccc(O)c(OC)n4)C[C@@H]3C2)cc1 (stereo partly shown)
1.04 | 1 to 10 | O=C(CN1C[C@H]2C[C@H](Oc3cncnc3)C[C@H]2C1)c1ccc(O)cc1
0.434 | 0.1 to 1 | O=C(CN1C[C@H]2C[C@H](Oc3cccnc3)C[C@H]2C1)c1ccc(O)c(F)c1
0.367 | 0.1 to 1 | N#Cc1ccc(O[C@H]2C[C@@H]3CN(CC(O)c4ccc(O)c(F)n4)C[C@@H]3C2)cc1 (stereo partly shown)
0.267 | 0.1 to 1 | Oc1ccc(C(O)CN2C[C@H]3C[C@H](Oc4cncc(F)c4)C[C@H]3C2)cc1 (stereo partly shown)
0.253 | 0.1 to 1 | O=C(CN1C[C@H]2C[C@H](Oc3cncc(Cl)c3)C[C@H]2C1)c1ccc(O)cc1
0.249 | 0.1 to 1 | COc1cccc(F)c1O[C@H]1C[C@@H]2CN(CC(O)c3ccc(O)cc3)C[C@@H]2C1 (stereo partly shown)
0.23 | 0.1 to 1 | COc1ccc(S[C@H]2C[C@@H]3CN(CC(=O)c4ccc(O)cc4)C[C@@H]3C2)cc1
0.21 | 0.1 to 1 | Cc1ccc(O[C@H]2C[C@@H]3CN(CC(=O)c4ccc(O)cc4)C[C@@H]3C2)c(F)c1
0.14 | 0.1 to 1 | Cc1ccc(O[C@H]2C[C@@H]3CN(CC(O)c4ccc(O)cc4)C[C@@H]3C2)cn1 (stereo partly shown)

IC50 [1] [µM] | IC50 [2] [µM] | SMILES
0.113 | 0.1 to 1 | COc1ccc(S[C@H]2C[C@@H]3CN(CC(O)c4ccc(O)cc4)C[C@@H]3C2)cc1 (stereo partly shown)
0.0946 | < 0.1 | Oc1ccc(C(O)CN2C[C@H]3C[C@H](Oc4cccnc4)C[C@H]3C2)cc1 (stereo partly shown)
0.0815 | < 0.1 | O=C(CN1C[C@H]2C[C@H](Oc3cccnc3)C[C@H]2C1)c1ccc(O)cc1
0.0707 | < 0.1 | COc1cccc(O[C@H]2C[C@@H]3CN(CC(O)c4ccc(O)cn4)C[C@@H]3C2)c1 (stereo partly shown)
0.0521 | < 0.1 | Oc1ccc(C(O)CN2C[C@H]3C[C@H](Oc4cccnc4)C[C@H]3C2)cc1F (stereo partly shown)
0.0516 | < 0.1 | COc1ccc(O[C@H]2C[C@@H]3CN(CC(O)c4ccc(O)cc4)C[C@@H]3C2)cc1 (stereo partly shown)
0.0474 | < 0.1 | N#Cc1ccc(O[C@H]2C[C@@H]3CN(CC(O)c4ccc(O)cc4)C[C@@H]3C2)cc1 (stereo partly shown)
0.047 | < 0.1 | O=C(CN1C[C@H]2C[C@H](Oc3ccc(F)cc3)C[C@H]2C1)c1ccc(O)cc1
0.0415 | < 0.1 | COc1ccc(O[C@H]2C[C@@H]3CN(CC(O)c4ccc(O)c(F)c4)C[C@@H]3C2)cc1 (stereo partly shown)
0.0263 | < 0.1 | Oc1ccc(C(O)CN2C[C@H]3C[C@H](Oc4c(F)cccc4F)C[C@H]3C2)cc1 (stereo partly shown)
0.0206 | < 0.1 | Oc1ccc(C(O)CN2C[C@H]3C[C@H](Sc4ccccc4F)C[C@H]3C2)nc1 (stereo partly shown)
0.0192 | < 0.1 | Oc1ccc(C(O)CN2C[C@H]3C[C@H](Sc4ccc(F)cc4)C[C@H]3C2)cc1 (stereo partly shown)
0.00878 | < 0.1 | Oc1ccc(C(O)CN2C[C@H]3C[C@H](Oc4cccc(F)c4F)C[C@H]3C2)nc1 (stereo partly shown)
0.00525 | < 0.1 | Oc1ccc([C@@H](O)CN2C[C@H]3C[C@H](Oc4ccccc4)C[C@H]3C2)nc1
0.00524 | < 0.1 | Oc1ccc([C@H](O)CN2C[C@H]3C[C@H](Oc4ccccc4)C[C@H]3C2)nc1
